Test results: US20250179066A1, “ZWITTERIONIC ANTIBACTERIAL COMPOUNDS” (Hoffmann-La Roche Inc., priority 2022, published 2025)
Where a name gives a salt, the structure may show the parent alone. Read-outs that look alike come from different tables or passages of the source.

System: Acinetobacter baumannii ATCC17961
Assay: Antimicrobial susceptibility testing: 90% growth inhibitory concentration (IC90) determination
Type: cell-based
Settings: 90% growth inhibitory concentration against Acinetobacter baumannii ATCC17961, Iso-Sensitest broth, OD 600 nm over 16 h, read-out: ATCC 17961 IC90
Method in brief: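 OD600 monitored each minute over 16 h at 35±2° C for bacteria (~5×10^5 CFU/mL final) in Iso-Sensitest medium with 10-point twofold compound series (e.g. 10-0.0195 μM final). Concentration giving 90% growth inhibition in log phase reported as IC90.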

[1] = Acinetobacter baumannii, ATCC17961, 16 h

IC90 [1] [nM]	Compound	IC90 [nM]
555	Cn1c(-c2cn(-c3cc4c(ccn4CC(N)=O)cn3)nc2C(F)(F)F)cnc1C(=O)Nc1ccc(C(=O)N2CCN(C(=O)[C@H]3CC[N@+](CC(=O)O)(CC4CNC4)CC3)CC2)c(Cl)c1 [Example 168, cis-2-[4-[4-[4-[[5-[1-[1-(2-amino-2-keto-ethyl)pyrrolo[3,2-c]pyridin-6-yl]-3-(trifluoromethyl)pyrazol-4-yl]-1-methyl-imidazole-2-carbonyl]amino]-2-chloro-benzoyl]piperazine-1-carbonyl]-1-(azetidin-3-ylmethyl)piperidin-1-ium-1-yl]acetic Acid.1:1 2,2,2-trifluoroacetate]	
466	Cn1c(-c2cn(-c3ccc4c(cc(CO)n4CC#N)n3)nc2C(F)(F)F)cnc1C(=O)Nc1ccc(C(=O)N2CCN(C(=O)[C@H]3CC[N@+](CC(=O)O)(CC4CNC4)CC3)CC2)c(Cl)c1 [Example 169, cis-2-[1-(azetidin-3-ylmethyl)-4-[4-[2-chloro-4-[[5-[1-[1-(cyanomethyl)-2-methylol-pyrrolo[3,2-b]pyridin-5-yl]-3-(trifluoromethyl)pyrazol-4-yl]-1-methyl-imidazole-2-carbonyl]amino]benzoyl]piperazine-1-carbonyl]piperidin-1-ium-1-yl]acetic acid. 1:1 2,2,2-trifluoroacetate]	
199	Cn1c(-c2cn(-c3ccc(N)cc3F)nc2C(F)(F)F)cnc1C(=O)Nc1ccc(C(=O)N2CCN(C(=O)[C@H]3CC[N@@+](CCCN)(CC(=O)O)CC3)CC2)c(Cl)c1 [Example 170, cis-2-[4-[4-[4-[[5-[1-(4-amino-2-fluoro-phenyl)-3-(trifluoromethyl)pyrazol-4-yl]-1-methyl-imidazole-2-carbonyl]amino]-2-chloro-benzoyl]piperazine-1-carbonyl]-1-(3-aminopropyl)piperidin-1-ium-1-yl]acetic acid. 1:1 2,2,2-trifluoroacetate]	
281	Cn1c(-c2cn(-c3ccc4[nH]c(CO)cc4n3)nc2C(F)(F)F)cnc1C(=O)Nc1ccc(C(=O)N2CCN(C(=O)[C@H]3CC[N@@+](CCCN)(CC(=O)O)CC3)CC2)c(Cl)c1 [Example 171, cis-2-[1-(3-aminopropyl)-4-[4-[2-chloro-4-[[1-methyl-5-[1-(2-methylol-1H-pyrrolo[3,2-b]pyridin-5-yl)-3-(trifluoromethyl)pyrazol-4-yl]imidazole-2-carbonyl]amino]benzoyl]piperazine-1-carbonyl]piperidin-1-ium-1-yl]acetic acid. 1:1 2,2,2-trifluoroacetate]	
194	CN(C)C(=O)c1c[nH]c2cc(-n3cc(-c4cnc(C(=O)Nc5ccc(C(=O)N6CCN(C(=O)[C@H]7CC[N@+](CC(=O)O)(CC8CNC8)CC7)CC6)c(Cl)c5)n4C)c(C(F)(F)F)n3)ncc12 [Example 172, cis-2-[1-(azetidin-3-ylmethyl)-4-[4-[2-chloro-4-[[5-[1-[3-(dimethylcarbamoyl)-1H-pyrrolo[3,2-c]pyridin-6-yl]-3-(trifluoromethyl)pyrazol-4-yl]-1-methyl-imidazole-2-carbonyl]amino]benzoyl]piperazine-1-carbonyl]piperidin-1-ium-1-yl]acetic acid. 1:1 2,2,2-trifluoroacetate]	
352	Cn1c(-c2cn(-c3cc4[nH]ncc4cn3)nc2C(F)(F)F)cnc1C(=O)Nc1ccc(C(=O)N2CCN(C(=O)[C@H]3CC[N@+](CC(=O)O)(CC4CNC4)CC3)CC2)c(Cl)c1 [Example 173, cis-2-[1-(azetidin-3-ylmethyl)-4-[4-[2-chloro-4-[[1-methyl-5-[1-(1H-pyrazolo[4,3-c]pyridin-6-yl)-3-(trifluoromethyl)pyrazol-4-yl]imidazole-2-carbonyl]amino]benzoyl]piperazine-1-carbonyl]piperidin-1-ium-1-yl]acetic acid. 1:1 2,2,2-trifluoroacetate]	
430	Cn1c(-c2cn(-c3cc4c(ccn4CCO)cn3)nc2C(F)(F)F)cnc1C(=O)Nc1ccc(C(=O)N2CCN(C(=O)[C@H]3CC[N@+](CC(=O)O)(CC4CNC4)CC3)CC2)c(Cl)c1 [Example 174, cis-2-[1-(azetidin-3-ylmethyl)-4-[4-[2-chloro-4-[[5-[1-[1-(2-hydroxyethyl)pyrrolo[3,2-c]pyridin-6-yl]-3-(trifluoromethyl)pyrazol-4-yl]-1-methyl-imidazole-2-carbonyl]amino]benzoyl]piperazine-1-carbonyl]piperidin-1-ium-1-yl]acetic acid. 1:1 2,2,2-trifluoroacetate]	
88.1	CNc1ccc(-n2cc(-c3cnc(C(=O)Nc4ccc(C(=O)N5CCN(C(=O)[C@H]6CC[N@+](CC(=O)O)(CC7CNC7)CC6)CC5)c(Cl)c4)n3C)c(C(F)(F)F)n2)c(F)c1 [Example 176, cis-2-[1-(azetidin-3-ylmethyl)-4-[4-[2-chloro-4-[[5-[1-[2-fluoro-4-(methylamino)phenyl]-3-(trifluoromethyl)pyrazol-4-yl]-1-methyl-imidazole-2-carbonyl]amino]benzoyl]piperazine-1-carbonyl]piperidin-1-ium-1-yl]acetic acid. 1:1 formate]	
201	Cn1c(-c2cn(-c3cc4[nH]cc(C(=O)N5CCOCC5)c4cn3)nc2C(F)(F)F)cnc1C(=O)Nc1ccc(C(=O)N2CCN(C(=O)[C@H]3CC[N@+](CC(=O)O)(CC4CNC4)CC3)CC2)c(Cl)c1 [Example 177, cis-2-[1-(azetidin-3-ylmethyl)-4-[4-[2-chloro-4-[[1-methyl-5-[1-[3-(morpholine-4-carbonyl)-1H-pyrrolo[3,2-c]pyridin-6-yl]-3-(trifluoromethyl)pyrazol-4-yl]imidazole-2-carbonyl]amino]benzoyl]piperazine-1-carbonyl]piperidin-1-ium-1-yl]acetic acid. 1:1 2,2,2-trifluoroacetate]	
135	Cn1c(-c2cn(-c3ccc(NCCO)cc3F)nc2C(F)(F)F)cnc1C(=O)Nc1ccc(C(=O)N2CCN(C(=O)[C@H]3CC[N@+](CC(=O)O)(CC4CNC4)CC3)CC2)c(Cl)c1 [Example 178, cis-2-[1-(azetidin-3-ylmethyl)-4-[4-[2-chloro-4-[[5-[1-[2-fluoro-4-(2-hydroxyethylamino)phenyl]-3-(trifluoromethyl)pyrazol-4-yl]-1-methyl-imidazole-2-carbonyl]amino]benzoyl]piperazine-1-carbonyl]piperidin-1-ium-1-yl]acetic acid. 1:1 formate]	
95.8	Cn1c(-c2cn(-c3cc4[nH]cc(C(=O)N5CCC(F)(F)CC5)c4cn3)nc2C(F)(F)F)cnc1C(=O)Nc1ccc(C(=O)N2CCN(C(=O)[C@H]3CC[N@+](CC(=O)O)(CC4CNC4)CC3)CC2)c(Cl)c1 [Example 179, cis-2-[1-(azetidin-3-ylmethyl)-4-[4-[2-chloro-4-[[5-[1-[3-(4,4-difluoropiperidine-1-carbonyl)-1H-pyrrolo[3,2-c]pyridin-6-yl]-3-(trifluoromethyl)pyrazol-4-yl]-1-methyl-imidazole-2-carbonyl]amino]benzoyl]piperazine-1-carbonyl]piperidin-1-ium-1-yl]acetic acid. 1:1 2,2,2-trifluoroacetate]	
135	Cn1c(-c2cn(-c3cc4[nH]c(CO)cc4cn3)nc2C(F)(F)F)cnc1C(=O)Nc1ccc(C(=O)N2CCN(C(=O)[C@H]3CC[N@+](CC(=O)O)(CC4CNC4)CC3)CC2)c(Cl)c1 [Example 180, cis-2-[1-(azetidin-3-ylmethyl)-4-[4-[2-chloro-4-[[1-methyl-5-[1-(2-methylol-1H-pyrrolo[3,2-c]pyridin-6-yl)-3-(trifluoromethyl)pyrazol-4-yl]imidazole-2-carbonyl]amino]benzoyl]piperazine-1-carbonyl]piperidin-1-ium-1-yl]acetic acid. 1:1 2,2,2-trifluoroacetate]	
244	Cn1c(-c2cn(-c3ccc(N)cc3F)nc2C(F)(F)F)cnc1C(=O)Nc1ccc(C(=O)N2CCN(C(=O)C3CC[N+](CCCC(=O)O)(CC4CNC4)CC3)CC2)c(Cl)c1 (stereo not shown) [Example 181, 4-[4-[4-[4-[[5-[1-(4-amino-2-fluoro-phenyl)-3-(trifluoromethyl)pyrazol-4-yl]-1-methyl-imidazole-2-carbonyl]amino]-2-chloro-benzoyl]piperazine-1-carbonyl]-1-(azetidin-3-ylmethyl)piperidin-1-ium-1-yl]butanoic acid;formate]	
	Cn1c(-c2cn(-c3ccc(N)cc3F)nc2C(F)(F)F)cnc1C(=O)Nc1ccc(C(=O)N2CCN(C(=O)CCC[N+](CCCN)(CCCN)CCCC(=O)O)CC2)c(Cl)c1 [Example 182, [4-[4-[4-[[5-[1-(4-amino-2-fluoro-phenyl)-3-(trifluoromethyl)pyrazol-4-yl]-1-methyl-imidazole-2-carbonyl]amino]-2-chloro-benzoyl]piperazin-1-yl]-4-oxo-butyl]-bis(3-aminopropyl)-(3-carboxypropyl)ammonium; 2,2,2-trifluoroacetate]	201
108	Cn1c(-c2cn(-c3ccc(N)cc3F)nc2C(F)(F)F)cnc1C(=O)Nc1ccc(C(=O)N2CCN(C(=O)CCC[N+](CCCN)(CCCN)CC(=O)O)CC2)c(Cl)c1 [Example 183, [4-[4-[4-[[5-[1-(4-amino-2-fluoro-phenyl)-3-(trifluoromethyl)pyrazol-4-yl]-1-methyl-imidazole-2-carbonyl]amino]-2-chloro-benzoyl]piperazin-1-yl]-4-oxo-butyl]-bis(3-aminopropyl)-(carboxymethyl)ammonium;formate]	
64.2	Cn1c(-c2cn(-c3ccc4[nH]c(CN)cc4n3)nc2C(F)(F)F)cnc1C(=O)Nc1ccc(C(=O)N2CCN(C(=O)[C@H]3CC[N@+](CC(=O)O)(CC4CNC4)CC3)CC2)c(Cl)c1 [Example 184, cis-2-[4-[4-[4-[[5-[1-[2-(aminomethyl)-1H-pyrrolo[3,2-b]pyridin-5-yl]-3-(trifluoromethyl)pyrazol-4-yl]-1-methyl-imidazole-2-carbonyl]amino]-2-chloro-benzoyl]piperazine-1-carbonyl]-1-(azetidin-3-ylmethyl)piperidin-1-ium-1-yl]acetic acid;formate]	
